Data reported in patent publication US20040029100A1, “Rapid screen to identify p-glycoprotein substrates and high affinity modulators” (priority 2000, published 2004).
Read-outs that look alike come from different tables or passages of the source. Blank lines part the entries; values can stand above or below the molecule they belong to. Square brackets hold non-standard residues; d marks the D form. Peptide text beside a SMILES is read from it. * marks the point of attachment. Sta = CC(C)C[C@H](N)[C@@H](O)CC(=O)O; Isovaleryl = CC(C)CC(=O)*; Cbz = O=C(OCc1ccccc1)*; Boc = CC(C)(C)OC(=O)*; OBn = c1ccc(CO*)cc1; OtBu = CC(C)(C)O*

Assays:
[1] = target: T1, P-glycoprotein (Pgp) purified from MDR CH^RB30 Chinese hamster ovary cells (Cricetulus griseus, UniProt P21448); test: Quenching of intrinsic Trp fluorescence of purified Pgp by nucleotides, drugs and peptides; details: for ΔFmax: maximal quenching reached at saturation
Procedure: (§1) Purification of Pgp. Pgp was purified from plasma membrane of MDR CH^RB30 cells by a modification of the method previously described for CH^RC5 (27). […] Contaminating glycoproteins were removed from the S2 fraction by passing through a concanavalinA-Sepharose 4B column (Pharmacia) equilibrated with 2 mM CHAPS buffer. […] The Pgp preparation was kept on ice and used within 24 h.
(§2) Steady-state Fluorescence Measurements. Steady-state fluorescence measurements were performed using a Spex Model DM3000 spectrofluorimeter (Spex Industries Inc., Edison, N.J.) at 22° C., with excitation and emission bandpass set to 4 nm. Most fluorescence studies were carried out on solutions of 100 μg/mL Pgp in 2 mM CHAPS buffer, in the presence of 0.5 mg/mL of the phospholipid PMPC (Avanti Polar Lipids, Alabaster, Ala.). PMPC was added as extruded 100 nm unilamellar vesicles (8). With some drugs, the use of a lipid was not required for the fluorescence measurements. The excitation and emission spectra were the average of three scans, and were corrected by subtracting control scans with the same phospholipid buffer in the absence of protein.
(§3) Quenching Studies using TNP-Nucleotide Derivatives and Drugs. […] Working solutions of TNP-derivatives, and non-peptide drugs and modulators were also prepared in 2 mM CHAPS with 0.5 mg/mL PMPC vesicles, whereas peptide-based drugs and modulators were dissolved in dimethylsulfoxide (DMSO). […] Quenching experiments were performed by successively adding 5 μL aliquots of TNP-derivatives or drug solution to 500 μL of Pgp solution in a 0.5 cm quartz cuvette. After each addition, the sample was excited at 290 nm and the steady-state fluorescence emission was measured at 330 nm. Fluorescence intensities were corrected for dilution, scattering, and the inner filter effect as described elsewhere (8). Control titrations were performed with 30 μM NATA to assess the non-specific quenching of Trp fluorescence by TNP-nucleotide derivatives and drugs.
(§4) The experimental quenching data were computer-fitted to the following equation as described previously (8)(9): [formula]
(§5) where (ΔF/F0 100) is the percent quenching (percent change in fluorescence relative to the initial value), following addition of substrate at a concentration [S], and Kd is the dissociation constant. Fitting was carried out using nonlinear regression with the Marquardt-Levenberg algorithm (SigmaPlot, SPSS Inc., Chicago, Ill.), and values of Kd and (ΔFmax/F0 100) were extracted. For biphasic titration curves, each section of the binding curve was fitted to the above equation separately, as described previously (32).

Pgp ATPase = Pgp ATPase (Cricetulus griseus, UniProt P21448); test: Pgp ATPase activity; type: biochemical; details: over the range 0.3-0.5 M
[2] = target: T1, P-glycoprotein (Pgp) purified from MDR CH^RB30 Chinese hamster ovary cells; test: Trp fluorescence lifetime of purified Pgp in presence of nucleotides and drugs; parameters: Pgp was purified from plasma membrane of MDR CH^RB30 cells; endogenous in cells; host or cells: MDR CH^RB30 Chinese hamster ovary cells (plasma membrane, CHAPS extraction, concanavalin A-Sepharose pass-through); details: Pgp Trp decay, concentration of substance
Procedure: as §1
Fluorescence Lifetime Measurements. Fluorescence decays were measured with a PTI Model C-720 fluorescence lifetime instrument ((28), Photon Technology International Inc., Lawrenceville, N.J.) utilizing a proprietary stroboscopic detection technique (29). […] Fluorescence decays were analyzed with a PTI TimeMaster Pro analysis package using a discrete 1- to 4- exponential fit, 1- to 4-exponential global analysis, or lifetime distribution analysis by the Exponential Series Method (ESM) (30). The quality of fits was judged by chi-square values and weighed residuals.

P-glycoprotein (Pgp) = P-glycoprotein (Pgp) (Cricetulus griseus, UniProt P21448); test: in vitro; details: Chinese hamster, Kd2
Procedure: as §1, §2, §3, §4, §5

[3] = maximal Trp quenching, single or higher affinity component
[4] = read-out: Kd1, single binding site or high affinity site, 100 μg/mL Pgp, 2 mM CHAPS, 0.5 mg/mL PMPC, 22° C.
[5] = Kd1, single binding site or high affinity site, 100 μg/mL Pgp, 2 mM CHAPS, 0.5 mg/mL PMPC, 22° C.
[6] = maximal Trp quenching, lower affinity component
[7] = read-out: Kd2, lower affinity site of biphasic quench curve

T1 sequence (P21448 whole entry): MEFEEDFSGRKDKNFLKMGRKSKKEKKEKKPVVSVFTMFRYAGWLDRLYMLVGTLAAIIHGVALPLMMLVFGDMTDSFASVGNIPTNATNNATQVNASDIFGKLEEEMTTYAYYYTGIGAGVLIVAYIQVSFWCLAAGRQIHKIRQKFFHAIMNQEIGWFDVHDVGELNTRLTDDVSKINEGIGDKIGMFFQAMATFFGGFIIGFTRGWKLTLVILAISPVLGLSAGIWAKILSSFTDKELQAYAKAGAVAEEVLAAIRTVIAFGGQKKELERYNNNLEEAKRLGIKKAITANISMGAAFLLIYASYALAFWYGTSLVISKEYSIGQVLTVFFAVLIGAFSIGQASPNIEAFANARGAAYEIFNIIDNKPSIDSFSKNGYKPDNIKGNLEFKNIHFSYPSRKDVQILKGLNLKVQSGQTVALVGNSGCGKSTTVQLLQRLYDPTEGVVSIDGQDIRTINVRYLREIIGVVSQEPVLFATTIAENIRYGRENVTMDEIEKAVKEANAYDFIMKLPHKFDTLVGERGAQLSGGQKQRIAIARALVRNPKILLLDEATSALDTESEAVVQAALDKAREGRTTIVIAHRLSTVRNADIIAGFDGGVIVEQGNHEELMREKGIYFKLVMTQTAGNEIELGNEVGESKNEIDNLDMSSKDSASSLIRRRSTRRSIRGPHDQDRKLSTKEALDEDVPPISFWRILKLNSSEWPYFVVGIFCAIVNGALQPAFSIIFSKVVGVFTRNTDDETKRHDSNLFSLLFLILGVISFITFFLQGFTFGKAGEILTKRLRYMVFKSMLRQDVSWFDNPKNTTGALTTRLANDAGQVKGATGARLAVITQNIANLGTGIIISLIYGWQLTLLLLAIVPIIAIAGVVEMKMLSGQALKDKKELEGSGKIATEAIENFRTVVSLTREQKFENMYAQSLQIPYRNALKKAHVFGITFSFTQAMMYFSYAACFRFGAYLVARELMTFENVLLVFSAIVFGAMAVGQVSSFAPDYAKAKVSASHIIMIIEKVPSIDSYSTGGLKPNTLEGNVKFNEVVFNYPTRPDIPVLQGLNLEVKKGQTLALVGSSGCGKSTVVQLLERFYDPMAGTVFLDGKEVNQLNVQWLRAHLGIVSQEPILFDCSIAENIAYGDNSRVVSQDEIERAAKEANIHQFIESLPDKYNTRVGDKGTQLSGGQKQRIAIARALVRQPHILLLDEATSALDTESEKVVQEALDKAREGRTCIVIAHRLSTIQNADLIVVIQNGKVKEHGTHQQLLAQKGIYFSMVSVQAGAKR
Chain of P-glycoprotein (Pgp) (P21448 whole entry): as above
Chain of Pgp ATPase (P21448 whole entry): as above

Molecule: Nc1ncnc2c1ncn2[C@@H]1O[C@H](COP(=O)([O-])OP(=O)([O-])O)[C@@H](O)[C@H]1O.[Na+].[Na+] [ADP, disodium-ADP]
ΔFmax1 [1, 3]: 9.46% | ΔFmax [1]: ~10% | Kd [1, 4]: 330 µM | Kd ([1]; single type of binding site): ~300 µM

Molecule: Nc1ncnc2c1ncn2C1OC(COP(=O)(O)OP(=O)(O)NP(=O)(O)O)C(O)C1O (stereo not shown) [AMP-PNP, 5′-adenylylimido-diphosphate]
ΔFmax1 [1, 3]: 10.6% | ΔFmax [1]: ~10% | Kd ([1]; single type of binding site): 210 µM

Molecule: Nc1ncnc2c1ncn2[C@@H]1O[C@H](COP(=O)(O)OP(=O)([O-])OP(=O)([O-])O)[C@@H](O)[C@H]1O.[Na+].[Na+] [ATP, disodium-ATP]
ΔFmax1 [1, 3]: 10.4% | ΔFmax [1]: ~10% | Kd [1, 4]: 280 µM | Kd ([1]; single type of binding site): ~300 µM

Molecule: CCCCCCCCCCCCCCCCCCOP(=O)([O-])OC1CC[N+](C)(C)CC1 [D21266]
ΔFmax1 [1, 3]: 13.0 ± 1.15% | Kd [1, 4]: 20.1 ± 3.4 µM

Molecule: CCCCCCCCCCCCCCCCCCOP(=O)(O)OCC[N+]1(C)CCCCC1 [D-20133]
ΔFmax1 [1, 3]: 12.3 ± 0.89% | Kd [1, 4]: 12.8 ± 2.1 µM

Molecule: CCOc1ccc(-c2nc3ccc(-c4nc5ccc(N6CCN(C)CC6)cc5[nH]4)cc3[nH]2)cc1 [Hoechst 33342]
ΔFmax1 [1, 3]: 57.2 ± 1.97% | Kd [1, 4]: 2.61 ± 0.182 µM

Molecule: O=c1cc(N2CCOCC2)oc2c(-c3ccccc3)cccc12 [LY294002]
Kd [1, 5]: 6.29 ± 0.88 µM | Kd ([1]; Kd2, lower affinity site of biphasic quench curve): 11.5 ± 1.5 µM | ΔFmax2 [1, 6]: 36.2 ± 2.0% | ΔFmax1 [1, 3]: 29.7 ± 1.6%

Kd [1]: 0.081 ± 0.0071 µM | ΔFmax1 [1, 3]: 4.02 ± 0.079%
Molecule: C/C=C/C[C@@H](C)C(=O)[C@H]1C(=O)N[C@@H](C(C)C)C(=O)N(C)CC(=O)N(C)[C@@H](CC(C)C)C(=O)N[C@@H](C(C)C)C(=O)N(C)[C@@H](CC(C)C)C(=O)N[C@@H](C)C(=O)N[C@H](C)C(=O)N(C)[C@@H](CC(C)C)C(=O)N(C)[C@@H](CC(C)C)C(=O)N(C)[C@@H](C(C)C)C(=O)N1C [PSC833]

Molecule: C=CC(N)=O [acrylamide]
decline in catalytic activity (ATP hydrolysis by Pgp) (Pgp ATPase): ~20%

Molecule: COc1cc2c(c(OC)c1OC)-c1ccc(OC)c(=O)cc1[C@@H](NC(C)=O)CC2 [colchicine]
ΔFmax1 [1, 3]: 102.2 ± 5.7% | <tav> (amplitude average lifetime) [2]: 2.63 ns | a1 (pre-exponential value) [2]: 0.66 | a2 (pre-exponential value) [2]: 0.39 | t1 (fluorescence lifetime) [2]: 1.4 ns | t2 (fluorescence lifetime) [2]: 4.7 ns

Molecule: COc1cccc2c1C(=O)c1c(O)c3c(c(O)c1C2=O)C[C@@](O)(C(C)=O)C[C@@H]3O[C@H]1C[C@H](N)[C@H](O)[C@H](C)O1 [daunorubicin]
Kd [1]: 2.97 ± 0.38 µM | ΔFmax1 [1]: 22.7 ± 1.3% | ΔFmax2 [1]: 38.2 ± 2.4% | Kd (P-glycoprotein (Pgp)): 10.7 ± 1.7 µM | <tav> (amplitude average lifetime) [2]: 2.61 ns | a1 (pre-exponential value) [2]: 0.71 | a2 (pre-exponential value) [2]: 0.52 | t1 (fluorescence lifetime) [2]: 1.3 ns | t2 (fluorescence lifetime) [2]: 4.4 ns

Molecule: COc1cccc2c1C(=O)c1c(O)c3c(c(O)c1C2=O)C[C@@](O)(C(=O)CO)C[C@@H]3O[C@H]1C[C@H](N)[C@H](O)[C@H](C)O1 [doxorubicin]
Kd [1]: 5.44 ± 0.55 µM | ΔFmax2 [1, 6]: 38.7 ± 3.0% | ΔFmax1 [1, 3]: 19.5 ± 0.90% | Kd (P-glycoprotein (Pgp)): 21.6 ± 3.2 µM

Molecule: CCCCCCCCCCCCCCCCOP(=O)([O-])OCC[N+](C)(C)C [mitelfosine]
ΔFmax1 [1]: 12.0 ± 1.0% | Kd [1, 4]: 20.6 ± 3.3 µM

Molecule: CC(C)CC(=O)N[C@H](C(=O)N[C@H](C(=O)N[C@@H](CC(C)C)[C@@H](O)CC(=O)N[C@@H](C)C(=O)N[C@@H](CC(C)C)[C@@H](O)CC(=O)O)C(C)C)C(C)C [pepstatin A] (Isovaleryl-VV[Sta]A[Sta]-OH)
Kd [1, 5]: 9.53 ± 0.78 µM | ΔFmax1 [1, 3]: 4.46 ± 0.073%

Molecule: C=C[C@H]1C[N@@]2CC[C@H]1C[C@H]2[C@H](O)c1ccnc2ccc(OC)cc12 [quinine]
ΔFmax1 [1]: 33.5 ± 2.2%

Molecule: CC(C)(C)OC(=O)N[C@@H](CC(=O)OCc1ccccc1)C(=O)N[C@@H](CCCCNC(=O)OCc1ccccc1)C(=O)OC(C)(C)C [reversin 201] (Boc-Asp(OBn)-Lys(Cbz)-OtBu; N-terminus and C-terminus assumed)
Kd ([1]; Kd1): 0.23 ± 0.02 µM

Molecule: COC(=O)[C@H](CCCCNC(=O)[C@H](CCC(=O)OCc1ccccc1)NC(=O)OC(C)(C)C)NC(=O)[C@H](CCC(=O)OCc1ccccc1)NC(=O)OC(C)(C)C [reversin 205]
Kd ([1]; Kd1): 0.37 ± 0.037 µM | ΔFmax1 [1, 3]: 5.41 ± 0.13%

Molecule: CCN(CC)c1ccc2c(-c3ccccc3C(=O)O)c3ccc(=[N+](CC)CC)cc-3oc2c1 [rhodamine B]
Kd [1, 4]: 4 ± 0.45 µM | Kd [1, 7]: 33.2 ± 3.1 µM

Molecule: CN1CCN(CCCN2c3ccccc3Sc3ccc(C(F)(F)F)cc32)CC1 [trifluoperazine]
ΔFmax2 [1, 6]: 67.7 ± 4.1% | ΔFmax1 [1, 3]: 18.9 ± 0.87% | Kd (P-glycoprotein (Pgp)): 16.8 ± 1.6 µM | <tav> (amplitude average lifetime) [2]: 2.15 ns | a1 (pre-exponential value) [2]: 0.72 | a2 (pre-exponential value) [2]: 0.35 | t1 (fluorescence lifetime) [2]: 1.1 ns | t2 (fluorescence lifetime) [2]: 4.3 ns

Molecule: CC(C)[C@@H]1NC(=O)[C@H](C)OC(=O)[C@@H](C(C)C)NC(=O)[C@@H](C(C)C)OC(=O)[C@H](C(C)C)NC(=O)[C@H](C)OC(=O)[C@@H](C(C)C)NC(=O)[C@@H](C(C)C)OC(=O)[C@H](C(C)C)NC(=O)[C@H](C)OC(=O)[C@@H](C(C)C)NC(=O)[C@@H](C(C)C)OC1=O [valinomycin]
Kd [1]: 0.72 ± 0.084 µM | ΔFmax1 [1, 3]: 4.14 ± 0.086%

Kd [1]: 0.5 ± 0.08 µM | ΔFmax1 [1, 3]: 17.5 ± 0.82% | <tav> (amplitude average lifetime) [2]: 2.17 ns | a1 (pre-exponential value) [2]: 1.07 | a2 (pre-exponential value) [2]: 0.51 | t1 (fluorescence lifetime) [2]: 1.1 ns | t2 (fluorescence lifetime) [2]: 4.4 ns
Molecule: CC[C@]1(O)C[C@@H]2CN(CCc3c([nH]c4ccccc34)[C@@](C(=O)OC)(c3cc4c(cc3OC)N(C)[C@H]3[C@@](O)(C(=O)OC)[C@H](OC(C)=O)[C@]5(CC)C=CCN6CC[C@]43[C@@H]65)C2)C1 [vinblastine]

Molecule: TNP-ATP
ΔFmax1 [1, 3]: 79.6% | ΔFmax [1]: ~80% | Kd ([1]; nucleotide alone, absence of drug): 51 µM | Kd [1, 4]: 50.6 µM | Kd ([1]; titration following daunorubicin binding): 65 µM | Kd ([1]; titration following saturation with vinblastine): 64 µM | <tav> (amplitude average lifetime) [2]: 2.14 ns | a1 (pre-exponential value) [2]: 0.69 | a2 (pre-exponential value) [2]: 0.42 | t1 (fluorescence lifetime) [2]: 1.0 ns | t2 (fluorescence lifetime) [2]: 4.0 ns

Molecule: rhodamine 123
Kd [1]: 6.81 ± 0.71 µM | ΔFmax2 [1, 6]: 107.2 ± 1.8% | ΔFmax1 [1, 3]: 47.5 ± 2.5% | ΔFmax [1]: ~100% | Kd [1, 7]: 29.8 ± 1 µM | <tav> (amplitude average lifetime) [2]: 2.73 ns | a1 (pre-exponential value) [2]: 0.65 | a2 (pre-exponential value) [2]: 0.43 | t1 (fluorescence lifetime) [2]: 1.5 ns | t2 (fluorescence lifetime) [2]: 4.6 ns

Molecule: tetramethylrosamine
ΔFmax1 [1]: 21.0 ± 3.3% | ΔFmax2 [1]: 32.8 ± 0.88% | <tav> (amplitude average lifetime) [2]: 3.9 ns | a1 (pre-exponential value) [2]: 2.43 | a2 (pre-exponential value) [2]: 1.1 | t1 (fluorescence lifetime) [2]: 0.55 ns
